Key:
[1] = Measurement of Log P values by HPLC on reversed phase columns (EEC directive 79/831 Annex V.A8); type: physicochemical; settings: reversed phase HPLC column, method [a]: LC-UV, acidic range, 0.1% formic acid in water and acetonitrile as eluent
Procedure: A-1.1. Measurement of Log P Values
Measurement of Log P values as provided herein was performed according to EEC directive 79/831 Annex V.A8 by HPLC (High Performance Liquid Chromatography) on reversed phase columns with the following methods:
^[a] Log P value is determined by measurement of LC-UV, in an acidic range, with 0.1% formic acid in water and acetonitrile as eluent (linear gradient from 10% acetonitrile to 95% acetonitrile).
^[b] Log P value is determined by measurement of LC-UV, in a neutral range, with 0.001 molar ammonium acetate solution in water and acetonitrile as eluent (linear gradient from 10% acetonitrile to 95% acetonitrile).
^[c] Log P value is determined by measurement of LC-UV, in an acidic range, with 0.1% phosphoric acid and acetonitrile as eluent (linear gradient from 10% acetonitrile to 95% acetonitrile).
If more than one Log P value is available within the same method, all the values are given and separated by “+”. […]

Alternaria alternata = Alternaria alternata in vitro cell test; type: cell-based; settings: 120 h, 20 ppm of active ingredient, liquid culture, 5 days incubation, spectrometric measurement of mycelium growth, read-out: efficacy (inhibition of fungal growth)
Procedure: (§1) B-6. Alternaria alternata In Vitro Cell Test [table] Fungicides were solubilized in DMSO and the solution used to prepare the required range of concentrations. The final concentration of DMSO used in the assay was ≤1%. A spore suspension of A. alternata was prepared and diluted to the desired spore density. Fungicides were evaluated for their ability to inhibit spore germination and mycelium growth in liquid culture assay. The compounds were added in the desired concentration to the culture medium with spores. After 5 days incubation, fungi-toxicity of compounds was determined by spectrometric measurement of mycelium growth. Inhibition of fungal growth was determined by comparing the absorbance values in wells containing the fungicides with the absorbance in control wells without fungicides.

Pyrenophora teres = test: B-10. Pyrenophora teres in vitro cell test; type: cell-based; settings: 144 h, 20 ppm of active ingredient, 6 days incubation, liquid culture, absorbance, read-out: efficacy (inhibition of fungal growth)
Procedure: as §1, with “B-10. Pyrenophora teres” for “B-6. Alternaria alternata”, “P. teres” for “A. alternata”, “6” for “5”

[2] = system: Colletotrichum lindemuthianum; test: B-8. Colletotrichum lindemuthianum in vitro cell test; type: cell-based; settings: 144 h, 20 ppm of active ingredient, 6 days incubation, liquid culture, absorbance, read-out: efficacy (inhibition of fungal growth)
Procedure: as §1, with “B-8. Colletotrichum lindemuthianum In” for “B-6. Alternaria alternata In”, “of C. lindemuthianum” for “of A. alternata”, “inhibit spores” for “inhibit spore”, “After 6” for “After 5”

Botrytis cinerea [3] = test: In vivo preventive test on Botrytis cinerea (grey mould); settings: 500 ppm of active ingredient, preventive spray on gherkin or cabbage, evaluated 4 to 5 days after inoculation, read-out: efficacy
Procedure: B-2. In Vivo Preventive Test on Botrytis cinerea (Grey Mould) [table] The active ingredients were made soluble and homogenized in a mixture of Dimethyl sulfoxide/Acetone/Tween® 80 and then diluted in water to the desired concentration. The young plants of gherkin or cabbage were treated by spraying the active ingredient prepared as described above. Control plants were treated only with an aqueous solution of Acetone/Dimethyl sulfoxide/Tween® 80. After 24 hours, the plants were contaminated by spraying the leaves with an aqueous suspension of Botrytis cinerea spores. The contaminated gherkin plants were incubated for 4 to 5 days at 17° C. and at 90% relative humidity. The contaminated cabbage plants were incubated for 4 to 5 days at 20° C. and at 100% relative humidity.

Alternaria brassicae = test: In vivo preventive test on Alternaria brassicae (leaf spot on radish or cabbage); settings: 500 ppm of active ingredient, preventive spray on radish or cabbage, evaluated 3 to 4 days after inoculation, read-out: efficacy
Procedure: B-1. In Vivo Preventive Test on Alternaria brassicae (Leaf Spot on Radish or Cabbage) [table] The active ingredients were made soluble and homogenized in a mixture of Dimethyl sulfoxide/Acetone/Tween® 80 and then diluted in water to the desired concentration. The young plants of radish or cabbage were treated by spraying the active ingredient prepared as described above. Control plants were treated only with an aqueous solution of Acetone/Dimethyl sulfoxide/Tween® 80. After 24 hours, the plants were contaminated by spraying the leaves with an aqueous suspension of Alternaria brassicae spores. The contaminated radish or cabbage plants were incubated for 3 to 4 days at 20° C. and at 100% relative humidity.

Botrytis cinerea [4] = test: B-11. Botrytis cinerea in vitro cell test; type: cell-based; settings: 144 h, 20 ppm of active ingredient, 6 days incubation, liquid culture, absorbance, read-out: efficacy (inhibition of fungal growth)
Procedure: as §1, with “B-11. Botrytis cinerea” for “B-6. Alternaria alternata”, “B. cinerea” for “A. alternata”, “6” for “5”

| chromatographic logP [1] | SMILES | inhibition at 20 ppm (Alternaria alternata) | inhibition at 20 ppm (Pyrenophora teres) | inhibition at 20 ppm [2] | pest or weed control at 500 ppm (Botrytis cinerea [3]) | pest or weed control at 500 ppm (Alternaria brassicae) | inhibition at 20 ppm (Botrytis cinerea [4]) |
| --- | --- | --- | --- | --- | --- | --- | --- |
| 3.74 | COc1cc(OC)nc(Oc2cnc3ccccc3c2C(=O)NCC(F)(F)c2ccc(C)cc2C)n1 [I-187] | 70 to 79% | 90 to 100% | – | – | – | – |
| 4.03 | C[C@H](NC(=O)c1c(Oc2cccc(C(F)(F)F)c2)nnc2ccccc12)c1cccc(C(F)(F)F)c1 (racemic) [I-022] | 80 to 89% | – | 70 to 79% | 90 to 100% | – | – |
| 4.46 | O=C(NCC(F)(F)c1ccc(Br)cc1Cl)c1c(Oc2cccc(Cl)c2)nnc2ccccc12 [I-013] | 90 to 100% | – | 90 to 100% | 90 to 100% | 90 to 100% | – |
| 3.33 | N#Cc1cccc(Oc2nnc3ccccc3c2C(=O)NCC(F)(F)c2ccc(Cl)cc2)c1 [I-160] | 90 to 100% | – | 90 to 100% | – | 80 to 89% | – |
| 3.07 | N#Cc1ccc(CONC(=O)c2c(Oc3cccc(C(F)(F)F)c3)nnc3ccccc23)cc1 [I-088] | – | – | 90 to 100% | – | – | 90 to 100% |
| 3.77 | N#Cc1cccc(Oc2nnc3ccccc3c2C(=O)NCC(F)(F)c2ccc(Br)cc2Cl)c1 [I-032] | 90 to 100% | – | 90 to 100% | 90 to 100% | – | – |
| 4.23 | O=C(NC[C@@H](F)c1ccc(Cl)c(Cl)c1)c1c(Oc2cccc(Cl)c2)nnc2ccccc12 (racemic) [I-051] | 90 to 100% | – | 90 to 100% | – | 70 to 79% | – |
| 4.4 | Cc1ccc(CCNC(=O)c2c(Oc3cccc(C(F)(F)F)c3)nnc3cc(F)ccc23)c(C)c1 [I-007] | 90 to 100% | – | 90 to 100% | 90 to 100% | – | – |
| 3.96 | O=C(NCC(F)(F)c1ccc(Cl)cc1)c1c(Oc2ccc(Cl)cc2)nnc2ccccc12 [I-018] | 80 to 89% | – | – | 90 to 100% | – | – |
| 4.3 | COc1ccc2c(C(=O)NCCc3ccc(C)cc3C)c(Oc3cccc(C(F)(F)F)c3)nnc2c1 [I-009] | 90 to 100% | – | – | – | – | – |
| 3.69 | O=C(N[C@H]1CCOc2ccc(F)cc21)c1c(Oc2cccc(C(F)(F)F)c2)nnc2ccccc12 (racemic) [I-165] | – | 90 to 100% | – | – | – | – |
| 4.23 | O=C(NCC(F)(F)c1ccc(Cl)cc1)c1c(Oc2cccc(C(F)(F)F)c2)cnc2ccccc12 [I-037] | – | – | 90 to 100% | 80 to 89% | – | 90 to 100% |
| 4.46 | O=C(NCC(F)(F)c1ccc(Br)cc1Cl)c1c(Oc2ccc(Cl)cc2)nnc2ccccc12 [I-019] | 80 to 89% | – | – | 90 to 100% | 70 to 79% | – |
| 5.01 | Cc1ccc(C(F)(F)CNC(=S)c2c(Oc3cccc(Cl)c3)nnc3ccccc23)c(C)c1 [I-158, 3-(3-chlorophenoxy)-N-[2-(2,4-dimethylphenyl)-2,2-difluoro-ethyl]cinnoline-4-carbothioamide] | 90 to 100% | – | 90 to 100% | – | 90 to 100% | – |
| 4.69 | Cc1ccc(CCNC(=O)c2c(Oc3cccc(C(F)(F)F)c3)nnc3c(C)cccc23)c(C)c1 [I-005] | 90 to 100% | – | 80 to 89% | 90 to 100% | – | – |
| 3.88 | Cc1ccc(CCNC(=O)c2c(Oc3cccc(C(F)(F)F)c3)nnc3cnccc23)c(C)c1 [I-011] | 90 to 100% | – | – | 90 to 100% | 80 to 89% | – |
| 3.65 | N#Cc1cccc(Oc2nnc3ccccc3c2C(=O)NC[C@H](F)c2ccc(Br)cc2Cl)c1 (racemic) [I-031] | 90 to 100% | – | 90 to 100% | 90 to 100% | 90 to 100% | – |
| 4.86 | CC(C)CON(Cc1ccccc1)C(=O)c1c(Oc2cccc(C(F)(F)F)c2)nnc2ccccc12 [I-170] | – | – | 70 to 79% | – | – | 90 to 100% |
| 3.9 | C[C@H](NC(=O)c1c(Oc2cccc(Cl)c2)nnc2ccccc12)c1cccc(C(F)(F)F)c1 (racemic) [I-016] | 80 to 89% | – | 80 to 89% | 90 to 100% | 90 to 100% | – |
| 3.2 | O=C(NCC(F)(F)c1ccc(Cl)cn1)c1c(Oc2cccc(C(F)F)c2)nnc2ccccc12 [I-036] | 90 to 100% | – | 90 to 100% | 90 to 100% | 90 to 100% | – |
| 4.88 | Cc1ccc2c(C(=O)N[C@H]3CCCc4cc(Br)ccc43)c(Oc3cccc(C(F)(F)F)c3)nnc2c1 (racemic) [I-181] | 80 to 89% | – | – | – | – | – |
| 4.64 | Cc1ccc2c(C(=O)NCC(F)(F)c3ccc(Br)cc3Cl)c(Oc3cccc(C(F)(F)F)c3)nnc2c1 [I-045] | 90 to 100% | – | 90 to 100% | 90 to 100% | 90 to 100% | – |
| 3.58 | Cc1ccc(C(F)(F)CNC(=O)c2c(Oc3cccc(C#N)c3)nnc3ccccc23)c(C)c1 [I-030] | 90 to 100% | – | 90 to 100% | 90 to 100% | – | – |
| 3.22 | O=C(NCCc1cnc(C(F)(F)F)nc1)c1c(Oc2cccc(C(F)(F)F)c2)nnc2ccccc12 [I-195] | – | 90 to 100% | – | – | – | – |
| 4.54 | O=C(N[C@H]1CCCc2cc(Cl)sc21)c1c(Oc2cccc(C(F)(F)F)c2)cnc2ccccc12 (racemic) [I-040] | 90 to 100% | – | 90 to 100% | 80 to 89% | – | – |
| 4.74 | Cc1ccc(C(F)(F)F)cc1Oc1nnc2ccccc2c1C(=O)NC[C@H](F)c1ccc(Cl)cc1Cl (racemic) [I-183] | – | 70 to 79% | – | – | – | – |
| 4.17 | O=C(N/C=C\c1ccccc1)c1c(Oc2cccc(C(F)(F)F)c2)cnc2ccccc12 [I-001] | 70 to 79% | – | – | 90 to 100% | – | – |
